Measured values from US6353004B1, “Peripherally acting anti-pruritic opiates” (Adolor Coporation, priority 1997, dated 2002).

Tests used:
[1] = test system: Compound 48/80-induced scratching; assay: mouse scratch model: antagonism of Compound 48/80-induced scratching; type: in vivo, male Swiss albino mice; settings: s.c.; for Mean % Inhibition of Scratching: Compound 48/80 challenge, scratching counted for 30 min; for antagonism of Compound 48/80-induced scratching (in words): mice
Description: Testing was performed in a mouse scratch model under blind conditions.
Groups of 8-10 male Swiss albino mice (Hilltop Lab Animals, Inc., Scottsdale, Pa.), weighing […], were used in the testing. They were housed under controlled temperature of 23-25° C. Food and water were freely available. Before the experiments, the mice were weighed, put into individual boxes and allowed to acclimate for 30 min.
Vehicle used to dissolve the test compounds: 20% w/w cremophor EL.
100 μl of the vehicle (3-5 doses, n=8-10) was injected s.c. into the back of the neck of mice 20 min. before challenging them with 100 μl of Compound 48/80 (2 mg/ml; […]) injected s.c. into the back of the neck.
To each mouse of a group of 8-10 mice previously subjected to the standard challenge various doses of the compounds, to be tested for anti-pruritic activity, were administered s.c. into the back of the neck.
For each group of 8-10 mice, the mean values for scratching were normalized to relative % antagonism of scratching and then plotted vs. dose of test compounds. Interval estimates of mean A50 were determined by nonlinear regression analysis (Kaleida Graph) and mean % inhibition of scratching was calculated.

[2] = i.v. administration; cited from earlier work

SMILES	Mean % Inhibition of Scratching ([1]; dose 2.5 mg/kg)	Mean % Inhibition of Scratching ([1]; dose 5.0 mg/kg)	Mean % Inhibition of Scratching ([1]; dose 10.0 mg/kg)	antagonism of Compound 48/80-induced scratching (in words) [1]	Mean % Inhibition of Scratching ([1]; dose 1.0 mg/kg)	generalized itching, share of patients [2]
Cl.O=C(O)C1(c2ccccc2)CCN(CCC(c2ccccc2)(c2ccccc2)c2ccccn2)CC1 [(1), 1-[3,3-diphenyl-3-(2-pyridyl)propyl]-4-phenyl-4-piperidinecarboxylic acid hydrochloride]	32%	65%	83%	antagonized Compound 48/80-induced scratching in a dose-related manner	–	–
OC1(Cc2ccc(Cl)cc2)CCN(CCC(c2ccccc2)(c2ccccc2)c2ccccc2)CC1 [(2), 1-(3,3,3-triphenylpropyl)-4-hydroxy-4-p-chlorobenzylpiperidine]	68%	94%	–	antagonized Compound 48/80-induced scratching in a dose-related manner	35%	–
CN(C)C(=O)C(CCN1CCC(O)(c2ccc(Cl)cc2)CC1)(c1ccccc1)c1ccccc1.Cl [(3), reference compound]	–	–	–	antagonized Compound 48/80-induced scratching in a dose-related manner	–	–
CN1CC[C@]23c4c5ccc(O)c4O[C@H]2[C@@H](O)C=C[C@H]3[C@H]1C5 [morphine]	–	–	–	–	–	about 1%
